Reference: patent publication US20240299420A1, “TETRACYCLINE DERIVATIVE-INDUCED MITOHORMESIS MEDIATES DISEASE TOLERANCE AGAINST VIRAL INFECTIONS” (priority 2021, published 2024)

What was measured:
[1] = system: hsp-6::gfp reporter (UPR^mt); type: in vivo, Caenorhabditis elegans; conditions: for Activity in Worm Assay: UPR^mt induction, C. elegans hsp-6::gfp reporter, compounds at 68 µM; for induction of MSR and in particular mitohormesis: summary of screen of 51 tetracycline derivatives; for UPR^mt activation (hsp-6::gfp reporter): 68 µM, 9-TB at 17 μM
[2] = system: E. coli; assay: Minimum inhibitory concentration (MIC) of bacterial growth; type: cell-based; conditions: compared with Dox
[3] = system: P. aeruginosa; assay: as above; type: cell-based; conditions: compared with Dox
[4] = system: mouse bone marrow derived macrophages (BMDM); assay: IFNβ measurement in BMDM culture medium (ELISA); type: cell-based; conditions: ddC 100 μM for 72 hours, Dox 30 μg/ml for 14 hours

Row | Molecule | Activity in Worm Assay [1] | also measured
1 | 4-oxime minocycline | inactive | –
2 | 7,9-bis(2,6-difluoro-4-pyridynyl)-sancycline [7,9-bis3POyr26 diF dox] | – | induction of MSR and in particular mitohormesis [1]: strongly induce MSR; MIC for E. coli [2]: significantly higher MIC; MIC for P. aeruginosa [3]: significantly higher MIC
3 | 8-bromo sancycline | – | induction of MSR and in particular mitohormesis [1]: strongly induce MSR; MIC for E. coli [2]: significantly higher MIC; MIC for P. aeruginosa [3]: significantly higher MIC
4 | 11,12-pyrazolo doxycycline | inactive | –
5 | CN(C)c1ccc(O)c2c1C[C@H]1C[C@H]3[C@H](N(C)C)C(O)=C(C(N)=O)C4=NNC(O)(C1C2=O)[C@]43O (stereo partly drawn) [1,12-hydroxypyrazolo minocycline] | inactive | –
6 | CN(C)c1ccc(O)c2c1C[C@H]1C[C@H]3[C@H](N(C)C)C(O)=C(C#N)C(=O)[C@@]3(O)C(O)=C1C2=O [2N nitrile minocycline] | inactive | –
7 | C=C1C(=O)c2c(O)ccc(N(C)C)c2C[C@H]1C[C@H](C)[C@@H](C)N(C)C [2N-1,1′-dimethylbutane minocycline] | slight | –
8 | C[C@H]1c2cccc(O)c2C(=O)C2=C(O)[C@]3(O)C(=O)C(C#N)=C(O)[C@@H](N(C)C)[C@@H]3[C@@H](O)[C@@H]21 [2N-nitrile doxycycline] | inactive | –
9 | NC(=O)C1=C(O)C[C@@H]2C[C@@H]3Cc4ccc(N)c(O)c4C(=O)C3=C(O)[C@]2(O)C1=O [4-dedimethyl-amino-9-amino sancycline] | inactive | –
10 | CN(C)c1ccc(O)c2c1C[C@H]1C[C@H]3CC(O)=C(C(N)=O)C(=O)[C@@]3(O)C(O)=C1C2=O [4-dedimethylamino minocycline] | inactive | –
11 | CN(C)c1cc(N)c(O)c2c1C[C@H]1C[C@H]3CC(O)=C(C(N)=O)C(=O)[C@@]3(O)C(O)=C1C2=O [4-dedimethylamino-9-aminominocycline] | inactive | –
12 | CN(C)[C@@H]1C(O)=C(C(N)=O)C(=O)[C@@]2(O)C(O)=C3C(=O)c4c(O)cccc4C(CSC4CCCC4)[C@H]3[C@H](OC(=O)C3CCCC3)[C@@H]12 (stereo partly drawn) [5-cyclopentanoate-13-cyclopentylthio dihydro methacycline] | slight | –
13 | CCCCCC(=O)O[C@H]1[C@H]2C(=C(O)[C@]3(O)C(=O)C(C(N)=O)=C(O)[C@@H](N(C)C)[C@H]13)C(=O)c1c(O)cccc1[C@@H]2C [5-hexanoate doxycycline] | slight | –
14 | CCC(=O)O[C@H]1[C@H]2C(=C(O)[C@]3(O)C(=O)C(C(N)=O)=C(O)[C@@H](N(C)C)[C@H]13)C(=O)c1c(O)cccc1[C@@H]2C [5-propionate doxycycline] | inactive | –
15 | CN(C)[C@@H]1C(O)=C(C(N)=O)C(=O)[C@@]2(O)C(O)=C3C(=O)c4c(O)ccc(/C=C/c5ccccc5)c4C[C@H]3C[C@@H]12 [7-(1-styrylphenyl) sancycline] | inactive | –
16 | CN(C)[C@@H]1C(O)=C(C(N)=O)C(=O)[C@@]2(O)C(O)=C3C(=O)c4c(O)ccc(-c5ccc(F)cc5)c4C[C@H]3C[C@@H]12 [7-(4-fluoro-phenyl)sancycline] | inactive | –
17 | CN(C)[C@@H]1C(O)=C(C(N)=O)C(=O)[C@@]2(O)C(O)=C3C(=O)c4c(O)ccc(Br)c4C[C@H]3C[C@@H]12 [7-bromo sancycline] | – | induction of MSR and in particular mitohormesis [1]: strongly induce MSR; MIC for E. coli [2]: significantly higher MIC; MIC for P. aeruginosa [3]: significantly higher MIC
18 | CCCCc1ccc(O)c2c1C[C@H]1C[C@H]3[C@H](N(C)C)C(O)=C(C(N)=O)C(=O)[C@@]3(O)C(O)=C1C2=O [7-butyl sancycline] | slight | –
19 | CN(C)[C@@H]1C(O)=C(C(N)=O)C(=O)[C@@]2(O)C(O)=C3C(=O)c4c(O)ccc(C5CCCC5)c4C[C@H]3C[C@@H]12 [7-cyclopentyl sancycline] | inactive | –
20 | CN(C)c1cc(-c2sccc2C(=O)O)c(O)c2c1C[C@H]1C[C@H]3[C@H](N(C)C)C(O)C(C(N)=O)C(=O)[C@@]3(O)C(O)=C1C2=O (stereo partly drawn) [9-(2′carboxy-1′-thiophene) minocycline] | inactive | –
21 | CN(C)c1cc(NC(=O)Nc2cc(C(F)(F)F)cc(C(F)(F)F)c2)c(O)c2c1C[C@H]1C[C@H]3[C@H](N(C)C)C(O)=C(C(N)=O)C(=O)[C@@]3(O)C(O)=C1C2=O [9-(3,5-trifluoromethyl-phenylurea) aminominocycline] | inactive | –

Row | Molecule | Activity in Worm Assay [1] | also measured
22 | CN(C)c1cc(-c2ccc(C(=O)O)s2)c(O)c2c1C[C@H]1C[C@H]3[C@H](N(C)C)C(O)=C(C(N)=O)C(=O)[C@@]3(O)C(O)=C1C2=O [9-(4′-carboxy-1′-thiophene) minocycline] | inactive | –
23 | CN(C)c1cc(NC(=O)CN2CCCC2)c(O)c2c1C[C@H]1C[C@H]3[C@H](N(C)C)C(O)=C(C(N)=O)C(=O)[C@@]3(O)C(O)=C1C2=O [9-(pyrrolidinyl-methylcarbonyl) aminominocycline] | inactive | –
24 | CC(=O)Nc1ccc2c(c1O)C(=O)C1=C(O)[C@]3(O)C(=O)C(C(N)=O)=C(O)[C@@H](N(C)C)[C@@H]3[C@@H](O)[C@@H]1[C@H]2C [9-acetylamino doxycycline] | inactive | –
25 | CCc1ccc2c(c1O)C(=O)C1=C(O)[C@]3(O)C(=O)C(C(N)=O)=C(O)[C@@H](N(C)C)[C@@H]3[C@@H](O)[C@@H]1[C@H]2C [9-ethyl doxycycline] | inactive | –
26 | CCc1cc(N(C)C)c2c(c1O)C(=O)C1=C(O)[C@]3(O)C(=O)C(C(N)=O)=C(O)[C@@H](N(C)C)[C@@H]3C[C@@H]1C2 [9-ethyl minocycline] | inactive | –
27 | CCOC(=O)/C=C/c1ccc2c(c1O)C(=O)C1=C(O)[C@]3(O)C(=O)C(C(N)=O)=C(O)[C@@H](N(C)C)[C@@H]3[C@@H](O)[C@@H]1[C@H]2C [9-ethylacrylate doxycycline] | slight | –
28 | CN(C)[C@@H]1C(O)=C(C(N)=O)C(=O)[C@@]2(O)C(O)=C3C(=O)c4c(ccc(C(C)(C)C)c4O)C[C@H]3C[C@@H]12 [9-tert-butyl sancycline] | inactive | –
29 | CN(C)c1ccc(OS(=O)(=O)C(F)(F)F)c2c1C[C@H]1C[C@H]3[C@H](N(C)C)C(O)=C(C(N)=O)C(=O)[C@@]3(O)C(O)=C1C2=O [10-triflate minocycline] | inactive | –
30 | CN(C)c1ccc(O)c2c1C[C@H]1C[C@H]3[C@H](N(C)C)C(O)=C(C(N)=O)C(=O)[C@@]3(O)C3NN=C2C31 (stereo partly drawn) [11,12-pyrazolo minocycline] | inactive | –
31 | CN(C)[C@@H]1C(O)=C(C(N)=O)C(=O)[C@@]2(O)C(O)=C3C(=O)c4c(O)cccc4/C(=C\c4ccc(Br)cc4)[C@H]3[C@H](O)[C@@H]12 [13-(4′-bromophenyl) methacycline] | slight | –
32 | COc1ccc(/C=C2\c3cccc(O)c3C(=O)C3=C(O)[C@]4(O)C(=O)C(C(N)=O)=C(O)[C@@H](N(C)C)[C@@H]4[C@@H](O)[C@@H]32)cc1 [13-(4′-methoxyphenyl) methacycline] | slight | –
33 | CN(C)[C@@H]1C(O)=C(C(N)=O)C(=O)[C@@]2(O)C(O)=C3C(=O)c4c(O)cccc4C(CSC4CCCC4)[C@H]3[C@H](O)[C@@H]12 (stereo partly drawn) [13-cyclopentylthio dihydro methacycline] | slight | –
34 | CC(C)SCC1c2cccc(O)c2C(=O)C2=C(O)[C@]3(O)C(=O)C(C(N)=O)=C(O)[C@@H](N(C)C)[C@@H]3[C@@H](O)[C@@H]21 (stereo partly drawn) [13-isopropylthio dihydro methacycline] | slight | –
35 | CN(C)[C@@H]1C(O)=C(C(N)=O)C(=O)[C@@]2(O)C(O)=C3C(=O)c4c(O)cccc4C(CSc4ccccc4)[C@H]3[C@H](O)[C@@H]12 (stereo partly drawn) [13-thiophenyl dihydro methacycline] | slight | –
36 | CN(C)[C@@H]1C(O)=C(C(N)=O)C(=O)[C@@]2(O)C(O)=C3C(=O)c4c(O)cccc4S[C@H]3C[C@@H]12 [Thiatetracycline, reference compound] | inactive | –
37 | CN(C)c1cc(NC(=O)CNC(C)(C)C)c(O)c2c1C[C@H]1C[C@H]3[C@H](N(C)C)C(O)=C(C(N)=O)C(=O)[C@@]3(O)C(O)=C1C2=O [Tygacil ™, reference compound] | slight | UPR^mt activation (hsp-6::gfp reporter) [1]: did not activate
38 | Nc1ccn([C@H]2CC[C@@H](CO)O2)c(=O)n1 [ddC, 2′,3′-dideoxycytidine, reference compound] | – | effect on Dox-induced secretion of IFNβ [4]: abrogated
39 | CN(C)[C@@H]1C(O)=C(C(N)=O)C(=O)[C@@]2(O)C(O)=C3C(=O)c4c(O)ccc(Cl)c4[C@@H](O)[C@H]3C[C@@H]12 [demeclocycline, reference compound] | slight | –
40 | CN(C)c1ccc(O)c2c1C[C@H]1C[C@H]3[C@H](N(C)C)C(O)=C(C(N)=O)C(=O)[C@@]3(O)C(O)=C1C2=O [minocycline, reference compound] | inactive | UPR^mt activation (hsp-6::gfp reporter) [1]: did not activate
41 | CN(C)[C@@H]1C(O)=C(C(N)=O)C(=O)[C@@]2(O)C(O)=C3C(=O)c4c(O)cccc4[C@@](C)(O)[C@H]3[C@H](O)[C@@H]12 [oxytetracycline, reference compound] | slight | –
42 | Omadacycline [reference compound] | inactive | UPR^mt activation (hsp-6::gfp reporter) [1]: did not activate
